The text below walks through data of patent US20190002429A1, “Derivatives of Xanthone Compounds” (Agency for Science, Technology and Research, priority 2011, published 2019).

What is called HC50 is the concentration that lyses half of the red blood cells.

The subject of series [1] is MRSA. The series can be described thus: MIC99 against MRSA (Table 2-1). The format is cell-based, Staphylococcus aureus.
For series [2], the system named is S. aureus. Nature of the series: MIC99 against S. aureus (Table 2-1). Type of series: cell-based, Staphylococcus aureus.
The subject of series [3] is red blood cell. Nature of the series: Hemolytic activity / in vitro toxicity (HC50). Particulars: for HC50: Table 2-1, in vitro toxicity; for Hemolytic concentration, HC50: Table 10.
Series [4] relates to MRSA DM21455. The series can be described thus: MIC against MRSA DM21455. Type of series: cell-based, Staphylococcus aureus. The conditions noted are these: for Minimum inhibition concentration (MIC): MRSA DM21455, Source: Eye; for MIC: Staphylococcus aureus.
Series [5] deals with MRSA DM09808R. The series can be described thus: MIC against MRSA DM09808R. The format is cell-based, Staphylococcus aureus. Particulars: for MIC: Staphylococcus aureus.
In series [6] the test system is Staphylococcus aureus ATCC29213. The series can be described thus: MIC against S. aureus ATCC29213. The format is cell-based. Particulars: for MIC: Table 5.
In series [7] the test system is Pseudomonas aeruginosa ATCC27853. Nature of the series: MIC against Pseudomonas aeruginosa ATCC27853. The format is cell-based.
For series [8], the system named is Clinical Staphylococcus aureus DM4001. Nature of the series: Cytoplasmic membrane depolarization (DiSC3 dye). Type of series: cell-based. The conditions noted are these: DiSC3 fluorescence; AM-016 at 12.5 ug/mL. The protocol: Membrane potential-sensitive dye 3,3′-dipropylthiadicarbocyanine iodide (DiSC3) was used to determine the cytoplasmic membrane depolarization activity of AM-016. An overnight culture of clinical Staphylococcus aureus DM4001(source: Eye) was allowed to grow in Muller-Hinton broth (MHB) to OD620=0.3-0.4. Then, the bacteria was collected by centrifugation at 2800 r.p.m at 37° C. for 30 minutes and washed with 5 mM HEPES buffer at pH7. […] The cell suspension was then incubated with 0.1M KCl and 0.4 μM DiSC3 at 37° C. for 30 minutes. Dye uptake was monitored by fluorospectrometry (Photon Technology International (PTI) Photomultiplier Detection Systems, model 814) in a stirred cuvette until the fluorescence signal was stable. The desired concentration of AM-016 was added and the fluorescence was monitored at an excitation wavelength of 622 nm and at an emission wavelength of 670 nm. A blank with dye in the absence of bacteria with same concentration of AM-016 was used as a control.

Series [9] concerns Gram-positive bacteria. Nature of the series: Antimicrobial activity against Gram-positive bacteria (statement). The format is cell-based. The conditions noted are these: at 50 ug/ml.
Series [10] has as its system red blood cell.
For series [11], the system named is S. aureus DM4001. The series can be described thus: SYTOX green membrane permeabilization assay, S. aureus. Particulars: 10 μM; for SYTOX green staining of bacteria (fluorescence microscopy): FIG. 14; for Membrane permeabilization (SYTOX green fluorescence emission): fluorescence spectroscopy.
Experimental: S. aureus DM4001 was harvested at early exponential phase and suspended in 40 mM PBS until OD620 of 0.09 was obtained. Then, the bacteria suspension was incubated with 3 μM of SYTOX Green in dark. The mixture was monitored in a stirring cuvette at an excitation wavelength of 504 nm and at an emission wavelength of 523 nm until the fluorescence was stable. Then, 10 μM of AM compounds were added and the changed of fluorescence emissions were monitored.
In series [12] the test system is Mycobacterium tuberculosis.
Series [13] relates to Clinical Staphylococcus aureus DM4001. The series can be described thus: MIC against clinical S. aureus DM4001. The format is cell-based. Set-up: MIC: unit not given here. Particulars: Clinical S. aureus DM4001, Source: Eye; for MIC: Table 5.
In series [14] the test system is Bacillus cereus ATCC11778. Nature of the series: MIC against Bacillus cereus ATCC11778. The format is cell-based. Particulars: for MIC: Table 5.
For series [15], the system named is MRSA DM21595. Nature of the series: MIC against MRSA DM21595. The format is cell-based, Staphylococcus aureus. The conditions noted are these: Staphylococcus aureus.
Series [16] has as its system MRSA DR42412. The series can be described thus: MIC against MRSA DR42412. The format is cell-based, Staphylococcus aureus. Particulars: Staphylococcus aureus.
The test system of series [17] is Staphylococcus aureus ATCC 700699 (VISA). The series can be described thus: MIC against S. aureus ATCC 700699 (MRSA-700699, VISA). The format is cell-based. The conditions noted are these: for MIC: Staphylococcus aureus.
Series [18] deals with Enterococcus faecalis ATCC 51299 VRE. The series can be described thus: MIC against Enterococcus faecalis ATCC 51299 VRE. Particulars: E. faecalis ATCC 51299 VRE; no unit in table (Example 10 MICs in μg/ml). Type of series: cell-based.
The subject of series [19] is Enterococcus faecalis 11: DS6527 (VRE 208/11). The series can be described thus: MIC against Enterococcus faecalis DS6527 (VRE 208/11). The format is cell-based. The conditions noted are these: E. faecalis DS6527 (VRE 208/11); no unit in table (Example 10 MICs in μg/ml).
The subject of series [20] is Enterococcus faecalis 11: DU9345 VRE. The series can be described thus: MIC against Enterococcus faecalis DU9345 VRE. Particulars: E. faecalis DU9345 VRE; no unit in table (Example 10 MICs in μg/ml). The format is cell-based.
Series [21] relates to Staphylococcus aureus 10: DB6506 (MRSA04/10) (VISA). The series can be described thus: MIC against S. aureus DB6506 (VISA). The format is cell-based. Particulars: no unit in table (Example 10 MICs in μg/ml).
Series [22] concerns MRSA DM21455. The series can be described thus: Drug resistance test, 20 serial passages. Particulars: MRSA DM21455, FIG. 7. Type of series: cell-based, Staphylococcus aureus.

SMILES strings stand for the structures. ≈ marks a conversion by molar mass, not a printed value. Read-outs that look alike come from different tables or passages of the source.

In the case of `COc1c(O)cc2oc3cc(O)c(CC=C(C)C)c(O)c3c(=O)c2c1CC=C(C)C` [AM-000, alpha-mangostin, reference compound], the “MIC99 MRSA” value in series [1] came to 1.56 µg/mL (≈ 3.8 µM). In addition, in series [2], the “MIC99 S. aureus” value amounted to 1.56 µg/mL (≈ 3.8 µM). Further, in [3], the HC50 was found to be 9 µg/mL and the “Hemolytic concentration, HC50” value was 6.5 µg/mL.
Regarding `COc1c(OCCCCBr)cc2oc3cc(OCCCCBr)c(CC=C(C)C)c(O)c3c(=O)c2c1CC=C(C)C` [AM-005], the “MIC99 MRSA” value in series [1] was more than 200 µg/mL. Moreover, the “MIC99 S. aureus” value in series [2] is more than 200 µg/mL. Also, the “Minimum inhibition concentration (MIC)” value is more than 50 µg/mL in [4]; more than 50 µg/mL in series [5] (MRSA DM09808R, Source: Eye); more than 50 µg/mL in series [6]; more than 50 µg/mL in series [7]. In addition, in series [8], the Cytoplasmic membrane depolarization entry was “does not depolarize the membrane”. The “Activity against Gram-positive bacteria” value in [9] is given as “did not show activity”. This compound had an HC50 in [10] of more than 200 µg/mL. Moreover, the “SYTOX green staining of bacteria (fluorescence microscopy)” value (“SYTOX green staining of bacteria” below) in [11] was “no significant staining”. Further, the “Membrane permeabilization (SYTOX green fluorescence emission)” value (“Membrane permeabilization” for short) in series [11] was “not able to trigger the membrane permeabilization”.
Regarding `COc1c(OCCCCN2CCOCC2)cc2oc3cc(OCCCCN4CCOCC4)c(CC=C(C)C)c(O)c3c(=O)c2c1CC=C(C)C` [AM-009], in series [1], the “MIC99 MRSA” value was more than 200 µg/mL. Besides, the “MIC99 S. aureus” value in [2] was more than 200 µg/mL. Also, the “Minimum inhibition concentration (MIC)” value in series [4] is more than 25 µg/mL. In series [6], the “Minimum inhibition concentration (MIC)” value was more than 25 µg/mL. Further, the MIC100 in [12] was found to be 8 µM. For the same compound, the MIC100 in series [12] (value in brackets) turned out to be 5.54 µg/mL. Moreover, in [3], the HC50 is more than 200 µg/mL and the “Hemolytic concentration, HC50” value is more than 1000 µg/mL. Further, in series [11], the “SYTOX green staining of bacteria” value was “no significant staining” and the “Membrane permeabilization” value was “not able to trigger the membrane permeabilization”.
Turning to `CC(C)=CCc1c(O)cc2oc3cc(O)c(O)c(CC=C(C)C)c3c(=O)c2c1O` [AM-013, Gamma-mangostin, reference compound], the figures for the MIC100 in [12] and in series [12] (value in brackets) were 125 µM and 49.55 µg/mL, respectively.
For `CCN(CC)CCCCCCCCOc1cc2oc3cc(OCCCCCCCCN(CC)CC)c(OC)c(CC=C(C)C)c3c(=O)c2c(O)c1CC=C(C)C` [AM-043], the “Membrane permeabilization” value in series [11] was “weaker membrane permeabilization effect”.
On to `CCN(CC)CCCCCCCCCCOc1cc2oc3cc(OCCCCCCCCCCN(CC)CC)c(OC)c(CC=C(C)C)c3c(=O)c2c(O)c1CC=C(C)C` [AM-044], for which, in series [11], the “SYTOX green staining of bacteria” value is given as “no significant staining” and the “Membrane permeabilization” value was “not able to trigger the membrane permeabilization”.
As for `CCN(CC)CCCCCCCCCCCCOc1cc2oc3cc(OCCCCCCCCCCCCN(CC)CC)c(OC)c(CC=C(C)C)c3c(=O)c2c(O)c1CC=C(C)C` [AM-045], in [11], the “SYTOX green staining of bacteria” value is reported as “no significant staining” and the “Membrane permeabilization” value was “not able to trigger the membrane permeabilization”.
As to `COc1c(O)cc2oc3cc(OCC(=O)O)c(CC=C(C)C)c(O)c3c(=O)c2c1CC=C(C)C` [AM-071], the “Minimum inhibition concentration (MIC)” value worked out at 25 µg/mL (≈ 53.4 µM) in [4], 25 µg/mL (≈ 53.4 µM) in [13], 12.5 µg/mL (≈ 26.7 µM) in series [6] and 6.25 µg/mL (≈ 13.3 µM) in series [14]. Moreover, the MIC in series [13] worked out at 53.36; in [6] it was 26.68 µM (≈ 12.5 µg/mL); in series [14] it was 13.34 µM (≈ 6.25 µg/mL). In [12], this compound came in with an MIC100 of 250 µM. The “Hemolytic concentration, HC50” value in series [3] was found to be 37.5 µg/mL.
In the case of `COc1c(OCC(=O)O)cc2oc3cc(O)c(CC=C(C)C)c(O)c3c(=O)c2c1CC=C(C)C` [AM-072], the “Minimum inhibition concentration (MIC)” value in [4], in series [13], in series [6] and in series [14] was 6.25 µg/mL (≈ 13.3 µM) in each case. Further, the MIC in series [13] came to 13.34; in series [6], 13.34 µM (≈ 6.25 µg/mL); in series [14], 13.34 µM (≈ 6.25 µg/mL). For the same compound, the MIC100 in series [12] is 250 µM.
In the case of `CCCCCCCCCC(=O)N[C@@H](Cc1c[nH]c2ccccc12)C(=O)N[C@H](CC(N)=O)C(=O)N[C@@H](CC(=O)O)C(=O)N[C@@H]1C(=O)NCC(=O)N[C@@H](CCCN)C(=O)N[C@@H](CC(=O)O)C(=O)N[C@H](C)C(=O)N[C@@H](CC(=O)O)C(=O)NCC(=O)N[C@H](CO)C(=O)N[C@@H]([C@H](C)CC(=O)O)C(=O)N[C@@H](CC(=O)c2ccccc2N)C(=O)O[C@@H]1C` [Daptomycin, reference compound], the MIC in series [4] (MRSA-21455 (Eye), Example 10, Mueller Hinton broth dilution, read-out: MIC) was found to be 0.78 µg/mL (≈ 0.481 µM); in series [5] (MRSA-09808R (Eye), Example 10, Mueller Hinton broth dilution, read-out: MIC) it was 0.195 µg/mL (≈ 0.12 µM); in series [15] (MRSA-21595 (Wound), Example 10, Mueller Hinton broth dilution, read-out: MIC) it was 0.395 µg/mL (≈ 0.244 µM); in [16] (MRSA-42412 (Sputum), Example 10, Mueller Hinton broth dilution, read-out: MIC), 0.195 µg/mL (≈ 0.12 µM); in series [17] (MRSA-700699, Example 10, Mueller Hinton broth dilution, read-out: MIC) it was 0.78 µg/mL (≈ 0.481 µM).
As to `CN[C@H](CC(C)C)C(=O)N[C@H]1C(=O)N[C@@H](CC(N)=O)C(=O)N[C@H]2C(=O)N[C@H]3C(=O)N[C@H](C(=O)N[C@H](C(=O)O)c4cc(O)cc(O)c4-c4cc3ccc4O)[C@H](O)c3ccc(c(Cl)c3)Oc3cc2cc(c3O[C@@H]2O[C@H](CO)[C@@H](O)[C@H](O)[C@H]2O[C@H]2C[C@](C)(N)[C@H](O)[C@H](C)O2)Oc2ccc(cc2Cl)[C@H]1O` [Vancomycin, reference compound], the MIC worked out at 0.78 µg/mL (≈ 0.538 µM) in series [4] (MRSA); 0.395 µg/mL (≈ 0.273 µM) in [5] (MRSA); 0.78 µg/mL (≈ 0.538 µM) in series [15] (MRSA); 0.78 µg/mL (≈ 0.538 µM) in series [16] (MRSA); 6.25 µg/mL (≈ 4.31 µM) in series [17]. For the same compound, the Minimum inhibitory concentration in series [17] (S. aureus ATCC 700699 (VISA), no unit in table (Example 10 MICs in μg/ml)) is recorded as 6.25; in series [18], 50; in series [19], “Above 100”; in series [20] it was 1.56; in series [21], 1.56. The “Development of drug resistance” value in series [22] is “develops drug resistance more quickly”.
